# From patent publication US6638923B2, “Estra-1,3,5(10),16-tetraene derivatives” (Kyowa Hakko Kogyo Co., Ltd., priority 1999, dated 2003)
# Target: T1, recombinant human estrone sulfatase (Homo sapiens, UniProt P08842)
# T1 construct: made in house; host or cells: CHO (Chinese hamster ovary) cells
# T1 sequence (P08842 22-583): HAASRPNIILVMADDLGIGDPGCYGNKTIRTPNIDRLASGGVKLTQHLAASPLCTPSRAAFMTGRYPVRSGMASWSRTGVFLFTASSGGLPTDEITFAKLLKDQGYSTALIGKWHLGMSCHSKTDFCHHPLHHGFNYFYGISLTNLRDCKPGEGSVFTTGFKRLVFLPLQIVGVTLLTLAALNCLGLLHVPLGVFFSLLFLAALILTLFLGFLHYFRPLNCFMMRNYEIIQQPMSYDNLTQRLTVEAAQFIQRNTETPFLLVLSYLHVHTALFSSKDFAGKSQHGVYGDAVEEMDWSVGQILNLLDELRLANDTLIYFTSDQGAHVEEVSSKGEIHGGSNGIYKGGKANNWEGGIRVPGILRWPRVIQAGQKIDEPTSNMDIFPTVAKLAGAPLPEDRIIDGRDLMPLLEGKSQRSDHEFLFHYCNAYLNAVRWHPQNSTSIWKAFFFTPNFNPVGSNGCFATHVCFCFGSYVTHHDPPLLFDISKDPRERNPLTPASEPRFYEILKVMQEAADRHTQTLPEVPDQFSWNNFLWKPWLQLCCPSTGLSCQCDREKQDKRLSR
# Assay: Estrone sulfatase (steroid sulfatase) inhibition test
# Format: biochemical
# Conditions: test compound 1 μM; [6,7-3H] estrone sulfate 3.3 nmol/L; pH 7; 1 hour at 37° C.; read-out: Inhibitory activity against estrone sulfatase, Inhibition % (1 μM)
# Procedure: Estrone Sulfatase (Steroid Sulfatase) Inhibition Test:
# [6,7-^3H] Estrone sulfate (final concentration, 3.3 nmol/L; 300,000 dpm/tube), recombinant human estrone sulfatase (33 ng/tube) and an estra-1,3,5(10),16-tetraene derivative (final concentration, 1 μmol/L) were added to a phosphate buffer (pH 7; final volume, 0.15 mL) containing 0.25 mol/L of sucrose and 0.04 mol/L of nicotinamide, and allowed to enzymatically react for 1 hour at 37° C. The recombinant human estrone sulfatase was obtained by transforming a human estrone sulfatase gene into CHO (Chinese hamster ovary) cells and expressing it in the cells, and used after partial purification. After completion of the enzyme reaction, the reaction solution was mixed with toluene (0.5 mL), followed by stirring, and the mixture was centrifuged for 5 minutes at 9,000 rpm. Thereafter, the toluene extraction layer was separated and the radioactivity of the resulting [^3H]-estrone was measured with a liquid scintillation counter. The measurement was carried out by duplication, and the fluctuation within the assay was 10% or less. An enzyme reaction in the absence of the test compound was carried out at the same time. The activity of the test compound to inhibit estrone sulfatase was calculated by the following formula.
# Inhibitory activity against estrone sulfatase (%)=100−(100×(A/B)) […]
smiles,measurement,value
"C[C@]12CC[C@@H]3c4ccc(O)cc4CC[C@H]3[C@@H]1CC=C2C(=O)O [Compound 1, 3-hydroxyestra-1,3,5(10), 16-tetraene-17-carboxylic acid]",inhibition at 1 µM,48%
